Legend:
[1] = system: subjects; experiment: Study 2: Compound A multiple dosing, non-escalating (Example 3) vs escalating (Example 4), myalgia/back pain (aching); assay type: in vivo; conditions: for Myalgia/back pain, Mild/moderate / Myalgia/back pain, Severe: subjects affected/dosed
Experimental: (§1) All adverse events observed or recorded during the studies were recorded by the investigator, including information about concomitant illnesses and therapeutic interventions. For all adverse events, the investigator pursued and obtained information adequate to determine the outcome of the adverse event. Physical examinations at screening and medical histories of all subjects were normal with no indication of any joint, muscle, or tendon weakness.
Six subjects were given 20 mg of Compound A three times a day (tid) for 7 days. Dosage took the form of immediate release tablets.
Nine subjects were given 2.5 mg of Compound A three times a day (tid) for 7 days, then 7.5 mg tid for 7 days, then 20 mg tid for a further 7 days. Dosage took the form of immediate release tablets.

[2] = system: subjects; experiment: Study 3: Compound A escalating dosing with 24-hour drug holiday (Examples 6 and 7), myalgia and back pain (aching); assay type: in vivo; conditions: for Back pain, Mild / Back pain, Moderate / Back pain, Severe / Myalgia, Mild / Myalgia, Moderate / Myalgia, Severe: 20 mg tid 7 days, 24-hour drug holiday, 20 mg tid 6 days, subjects affected/dosed
Experimental: as §1
(§2) Nine subjects were given 2.5 mg of Compound A three times a day (tid) for 7 days followed by 20 mg tid for a further 7 days. The subjects were given a 24-hour drug holiday, i.e. a day without taking the inhibitor, then 20 mg tid dosing was continued for another 6 days. Dosage took the form of immediate release tablets.
as §2, with “4 days, then 7.5 mg tid for 3 days, then” for “7 days followed by”

[3] = system: subjects; experiment: Aching as side effect of multiple dosing of PDE5 inhibitors (background observations); conditions: for aching as a side effect of multiple dosing: in vivo
Source text: A problem associated with the multiple daily dosing of PDE5 inhibitors is that subjects experience, as a side effect, aching in certain parts of the body. Subjects describe this aching as predominantly a dull aching without muscle tenderness. Aching is experienced predominantly in the“postural muscles”, typically the calves, thighs, buttocks, lower back, shoulders and neck regions. These symptoms may be described as myalgia or back pain; for the purposes of this application, they will be referred to as“aching”.

[4] = system: subjects; experiment: Study 1: double blind, placebo-controlled, multiple dose study of sildenafil, adverse events (myalgia, back pain); assay type: in vivo; conditions: for Back pain / Myalgia: oral capsules, subjects affected/subjects dosed
Experimental: as §1
Dosage took the form of oral capsules.

[5] = system: subjects; conditions: reported by H Padma-Nathan et al and Eli Lilly/ICOS presentation; cited from earlier work
[6] = Example 3: 20 mg tid for 7 days, immediate release tablets
[7] = Example 4: 2.5 mg tid 7 days, then 7.5 mg tid 7 days, then 20 mg tid 7 days
[8] = Example 4 escalating dosing regime
[9] = Example 6 escalating dosing regime
[10] = Example 7: 2.5 mg tid 4 days, 7.5 mg tid 3 days
[11] = Example 7 escalating dosing regime

CCCc1nn(C)c2c(=O)[nH]c(-c3cc(C(=O)CN4CCOCC4)ccc3OCC)nc12 [Compound A, 5-(2-ethoxy-5-morpholinoacetylphenyl)-1-methyl-3-n-propyl-1,6-dihydro-7H-pyrazolo[4,3-d]pyrimidin-7-one]
Myalgia/back pain, Mild/moderate [1, 6]: 0/6 | Myalgia/back pain, Severe [1, 6]: 6/6 | subjects withdrawn due to the severity of the aching ([1]; Example 3: 20 mg tid, after only 4 days of treatment, six subjects): four | Myalgia/back pain, Mild/moderate [1, 7]: 1/9 | Myalgia/back pain, Severe [1, 7]: 1/9 | aching compared with non-escalating regime of Example 3 [1, 8]: significant reduction in aching | withdrawals [1, 8]: no withdrawals | incidence of aching after the 24-hour drug-free period ([2]; Example 6, 20 mg tid resumed): no apparent increase | Back pain, Mild ([2]; Example 6: 2.5 mg tid 7 days): 2/9 | Back pain, Moderate ([2]; Example 6: 2.5 mg tid 7 days): 0/9 | Back pain, Severe ([2]; Example 6: 2.5 mg tid 7 days): 0/9 | Myalgia, Mild ([2]; Example 6: 2.5 mg tid 7 days): 2/9 | Myalgia, Moderate ([2]; Example 6: 2.5 mg tid 7 days): 3/9 | Myalgia, Severe ([2]; Example 6: 2.5 mg tid 7 days): 1/9 | aching compared with non-escalating regime of Example 3 [2, 9]: significant reduction in aching | withdrawals [2, 9]: no withdrawals | effectiveness of triple dosing in reducing aching ([2]; Example 7 (triple dosing)): particularly effective in reducing aching | incidence of aching after the 24-hour drug-free period ([2]; Example 7, 20 mg tid resumed): no apparent increase | Back pain, Mild [2, 10]: 0/9 | Back pain, Moderate [2, 10]: 0/9 | Back pain, Severe [2, 10]: 0/9 | Myalgia, Mild [2, 10]: 4/9 | Myalgia, Moderate [2, 10]: 1/9 | Myalgia, Severe [2, 10]: 0/9 | aching compared with non-escalating regime of Example 3 [2, 11]: significant reduction in aching | withdrawals [2, 11]: no withdrawals

CCCOc1ccc(S(=O)(=O)N2CCN(CC)CC2)cc1-c1nc2c(CC)n(Cc3ccccn3)nc2c(=O)[nH]1 [WO 98/49166, Example 4, 3-ethyl-5-[5-(4-ethylpiperazin-1-ylsulphonyl)-2-n-propoxyphenyl]-2-(pyridin-2-yl)methyl-2,6-dihydro-7H-pyrazolo[4,3-d]pyrimidin-7-one]
aching as a side effect of multiple dosing [3]: observed

CCc1c2nc(-c3cc(S(=O)(=O)N4CCN(CC)CC4)cnc3OCCOC)[nH]c(=O)c2nn1Cc1ccccn1 [WO 99/54333, Example 4, 3-ethyl-5-[5-(4-ethylpiperazin-1-ylsulphonyl)-2-(2-methoxyethoxy)pyridin-3-yl]-2-(pyridin-2-yl)methyl-2,6-dihydro-7H-pyrazolo[4,3-d]-pyrimidin-7-one]
aching as a side effect of multiple dosing [3]: observed

CCCc1nn(C)c2c(=O)[nH]c(-c3cc(S(=O)(=O)N4CCN(C)CC4)ccc3OCC)nc12 [sildenafil, 5-[2-ethoxy-5-(4-methyl-1-piperazinylsulphonyl)phenyl]-1-methyl-3-n-propyl-1,6-dihydro-7H-pyrazolo[4,3-d]pyrimidin-7-one]
Back pain ([4]; 25 mg tid): 2/10 | Myalgia ([4]; 25 mg tid): 2/10 | Back pain ([4]; 50 mg tid): 2/9 | Myalgia ([4]; 50 mg tid): 5/9 | reports of severe treatment-related adverse events which led to discontinuance of the treatment ([4]; 75 mg tid): three | Back pain ([4]; 75 mg tid): 5/8 | Myalgia ([4]; 75 mg tid): 3/8 | most common adverse events ([4]; 25, 50 or 75 mg tid): back pain, headache and myalgia | persistence of headache and myalgia that occurred after a few days of treatment ([4]; lower doses (25 mg tid and 50 mg tid)): did not persist with further treatment | incidence of aching ([3]; 25 mg tid): 60% | incidence of aching ([3]; 75 mg tid): 100% | day by which aching disappears ([3]; higher doses (for example, 75 mg tid)): sixth or seventh day | day on which aching generally commences ([3]; multiple dosing regime): second or third day

CN1CC(=O)N2[C@H](c3ccc4c(c3)OCO4)c3[nH]c4ccccc4c3C[C@@H]2C1=O [tadalafil, (6R, 12aR)-2,3,6,7,12,12a-hexahydro-2-methyl-6-(3,4-methylenedioxyphenyl)-pyrazino[2′,1′:6,1]pyrido[3,4-b]indole-1,4-dione]
backache and myalgia [5]: reported to cause backache and myalgia

Reference: patent publication US20030124150A1, “Kit for reducing aching” (priority 2001, published 2003)
